Assay results taken from US20240051921A1, “CRYSTALLINE FORM OF A PHENOLIC TRPV1 AGONIST PRODRUG” (Concentric Analgesics, Inc., priority 2020, published 2024).

Assay: Dynamic vapor sorption (DVS) test, form stability as a function of relative humidity
Format: physicochemical
Conditions: 25° C.
Protocol: DVS test was performed using an SMS (Surface Measurement Systems) DVS Intrinsic instrument. The relative humidity at 25° C. were calibrated against deliquescence point of LiCl, Mg(NO3)2 and KCl. The following instrument parameters were used:
DVS test was performed on crystalline Compound 1, Form 1, to investigate its form stability as a function of relative humidity. The DVS test was first conducted at 25° C. with humidity cycled between 0% RH-95% RH-0% RH.

## CNCC1CCCCN1C(=O)Oc1ccc(CNC(=O)CCCC/C=C/C(C)C)cc1OC.Cl (stereo not drawn) [Compound 1, Form 1, (E)-2-methoxy-4-((8-methylnon-6-enamido)methyl)phenyl 2-((methylamino)methyl)piperidine-1-carboxylate hydrochloride]
0% RH-95% RH-0% RH, checked by XRPD
  crystal form change before and after DVS test (XRPD): no form change occurred
At 95% RH, cycle 0% RH-95% RH-0% RH
  moisture content (DVS): 16.5 % wt
Between 20% RH and 70% RH
  moisture content, relative stable platform (DVS): ~3.5 % wt
